target: T1, glucocorticoid receptor (Homo sapiens, UniProt P04150); test: Hep G2 TAT assay: induction of TAT by dexamethasone in HepG2 cells; format: cell-based
T1 construct: host or cells: HepG2
T1 sequence (P04150 1-777): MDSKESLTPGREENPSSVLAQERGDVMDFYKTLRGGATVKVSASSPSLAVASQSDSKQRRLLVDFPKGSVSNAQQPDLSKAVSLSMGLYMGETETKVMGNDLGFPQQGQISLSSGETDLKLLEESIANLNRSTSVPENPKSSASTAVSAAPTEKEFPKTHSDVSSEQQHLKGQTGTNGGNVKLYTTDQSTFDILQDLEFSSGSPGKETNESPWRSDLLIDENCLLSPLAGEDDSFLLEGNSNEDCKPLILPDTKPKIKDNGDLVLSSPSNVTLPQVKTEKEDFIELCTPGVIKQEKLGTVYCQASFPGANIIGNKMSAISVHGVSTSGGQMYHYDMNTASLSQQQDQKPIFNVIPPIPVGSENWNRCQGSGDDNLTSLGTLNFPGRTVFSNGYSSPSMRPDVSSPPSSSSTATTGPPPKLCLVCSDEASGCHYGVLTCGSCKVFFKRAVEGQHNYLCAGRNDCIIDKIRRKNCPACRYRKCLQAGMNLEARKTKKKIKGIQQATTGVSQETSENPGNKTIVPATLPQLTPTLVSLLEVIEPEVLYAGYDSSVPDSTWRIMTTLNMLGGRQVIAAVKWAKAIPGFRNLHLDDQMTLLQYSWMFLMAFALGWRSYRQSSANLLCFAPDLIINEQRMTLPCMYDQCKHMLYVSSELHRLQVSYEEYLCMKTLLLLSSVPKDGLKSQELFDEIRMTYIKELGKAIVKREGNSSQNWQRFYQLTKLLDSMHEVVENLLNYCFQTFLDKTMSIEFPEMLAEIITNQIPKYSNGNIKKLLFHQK
Procedure: Glucocorticoid mediated activation of TAT occurs by transactivation of glucocorticoid response elements in the TAT promoter by glucocorticoid receptor-agonist complex.
TAT activity was measured as outlined in the literature by A. Ali et al., J. Med. Chem., 2004, 47, 2441-2452.
HepG2 cells were cultured using MEME media supplemented with 10% (v/v) foetal bovine serum; 2 mM L-glutamine and 1% (v/v) NEAA at 37° C., 5%/95% (v/v) CO2/air. The HepG2 cells were counted and adjusted to yield a density of 0.125×10^6 cells/ml in RPMI 1640 without phenol red, 10% (v/v) charcoal stripped FBS, 2 mM L-glutamine and seeded at 25,000 cells/well in 200 μl into 96 well, sterile, tissue culture micro titre plates, and incubated at 37° C., 5% CO2 for 24 hours
Growth media was removed and replaced with assay media {RPMI 1640 without phenol red, 2 mM L-glutamine+10 μM forskolin}. […] Compounds were serially half log diluted in 100% (v/v) dimethylsulphoxide from a 10 mM stock.
HepG2 cells were then lysed with 30 μl of cell lysis buffer containing a protease inhibitor cocktail for 15 minutes at 4° C. 155 μl of substrate mixture was then added containing 5.4 mM Tyrosine sodium salt, 10.8 mM alpha ketoglutarate and 0.06 mM pyridoxal 5′ phosphate in 0.1 M potassium phosphate buffer (pH 7.4). After 2 hours incubation at 37° C. the reaction was terminated by the addition of 15 μl of 10 M aqueous potassium hydroxide solution, and the plates incubated for a further 30 minutes at 37° C. The TAT activity product was measured by absorbance at λ 340 nm.
[compound] and fitting the data to a 4 parameter logistic equation.

Compound | Ki [µM]
O=c1[nH]c([C@H]2CC=C(c3ccc(Cl)cc3C(F)(F)F)CC2)c(Cc2ccccc2)c(=O)[nH]1 (single isomer, unassigned) [Example 109] | 0.03
O=c1[nH]c(C2CC=C(c3ccc(OC(F)(F)F)cc3Cl)CC2)c(Cc2ccccc2)c(=O)[nH]1 (centres unmarked) [Example 60] | 0.041
C[C@@H]1CCCN(c2ncccc2C2=CCC(c3[nH]c(=O)[nH]c(=O)c3Cc3ccccc3)CC2)C1 (some centres unmarked) [Example 47] | 0.4
CN(C)c1ncc(C2=CCC(c3[nH]c(=O)[nH]c(=O)c3Cc3ccccc3)CC2)cn1 (centres unmarked) [Example 55] | 1.48
Cc1c(F)cccc1C1=CCC(c2[nH]c(=O)[nH]c(=O)c2Cc2ccccc2)CC1 (centres unmarked) [Example 24] | 0.033
CS(=O)(=O)c1ccc(C2=CCC(c3[nH]c(=O)[nH]c(=O)c3Cc3cccc(N4CCCC4)n3)CC2)c(F)c1 (centres unmarked) [Example 117] | 0.559
O=c1[nH]c(C2CC=C(c3ccc(C4CC4)cc3F)CC2)c(Cc2ccccc2)c(=O)[nH]1 (centres unmarked) [Example 111, 5-benzyl-6-(4′-cyclopropyl-2′-fluoro-2,3,4,5-tetrahydro-[1,1′-biphenyl]-4-yl)pyrimidine-2,4(1H,3H)-dione] | 0.113
Cn1nccc1C1=CCC(c2[nH]c(=O)[nH]c(=O)c2Cc2ccccc2)CC1 (centres unmarked) [Example 31] | 0.12
O=c1[nH]c(C2CC=C(c3cccc(Cl)c3)CC2)c(Cc2ccccc2)c(=O)[nH]1 (centres unmarked) [Example 16] | 0.64
O=c1[nH]c(C2CC=C(c3ccc(OCC(F)(F)F)cc3Cl)CC2)c(Cc2ccccc2)c(=O)[nH]1 (centres unmarked) [Example 87] | 0.453
O=c1[nH]c(C2CC=C(c3cccc(Cl)c3C(F)(F)F)CC2)c(Cc2ccccc2)c(=O)[nH]1 (centres unmarked) [Example 35] | 0.059
Cc1nn(C)cc1C1=CCC(c2[nH]c(=O)[nH]c(=O)c2Cc2ccccc2)CC1 (centres unmarked) [Example 58] | 0.52
COc1cc(Cl)ccc1C1=CCC(c2[nH]c(=O)[nH]c(=O)c2Cc2ccccc2)CC1 (centres unmarked) [Example 7] | 0.038
CO[C@H]1CCCN(c2ncccc2C2=CCC(c3[nH]c(=O)[nH]c(=O)c3Cc3ccccc3)CC2)C1 (some centres unmarked) [Example 49] | 0.28
CN(C)S(=O)(=O)c1ccc(C2=CCC(c3[nH]c(=O)[nH]c(=O)c3Cc3ccccc3)CC2)c(Cl)c1 (centres unmarked) [Example 103] | 0.258
O=c1[nH]c(C2CC=C(c3ccc(OC(F)(F)F)c(F)c3F)CC2)c(Cc2ccccc2)c(=O)[nH]1 (centres unmarked) [Example 92] | 0.803
O=c1[nH]c(C2CC=C(c3ccc(F)cc3)CC2)c(Cc2ccccc2)c(=O)[nH]1 (centres unmarked) [Example 3] | 0.46
O=c1[nH]c(C2CC=C(c3ccc(C4CC4)cc3C(F)(F)F)CC2)c(Cc2ccccc2)c(=O)[nH]1 (centres unmarked) [Example 112, 5-benzyl-6-(4′-cyclopropyl-2′-(trifluoromethyl)-2,3,4,5-tetrahydro-[1,1′-biphenyl]-4-yl)pyrimidine-2,4(1H,3H)-dione] | 0.333
CS(=O)(=O)c1ccc(C2=CCC(c3[nH]c(=O)[nH]c(=O)c3Cc3cccc(C(F)(F)F)c3)CC2)c(F)c1 (centres unmarked) [Example 116] | 0.17
O=c1[nH]c(C2CC=C(c3cccnc3C(F)(F)F)CC2)c(Cc2cccc(N3CCCC3)n2)c(=O)[nH]1 (centres unmarked) [Example 51, 5-((6-(Pyrrolidin-1-yl)pyridin-2-yl)methyl)-6-(4-(2-(trifluoromethyl)pyridin-3-yl)cyclohex-3-en-1-yl)pyrimidine-2,4(1H,3H)-dione, formic acid] | 0.4
COc1ccccc1C1=CCC(c2[nH]c(=O)[nH]c(=O)c2Cc2ccccc2)CC1 (centres unmarked) [Example 18] | 0.26
CNS(=O)(=O)c1ccc(C2=CCC(c3[nH]c(=O)[nH]c(=O)c3Cc3ccccc3)CC2)c(C(F)(F)F)c1 (centres unmarked) [Example 84] | 0.259
CS(=O)(=O)c1ccc(C2=CCC(c3[nH]c(=O)[nH]c(=O)c3Cc3ccccc3)CC2)c(F)c1 (centres unmarked) [Example 73] | 0.07
CS(=O)(=O)c1ccc(C2=CCC(c3[nH]c(=O)[nH]c(=O)c3Cc3cccc(F)c3F)CC2)c(F)c1 (centres unmarked) [Example 115, 5-(2,3-difluorobenzyl)-6-(2′-fluoro-4′-(methylsulfonyl)-2,3,4,5-tetrahydro-[1,1′-biphenyl]-4-yl)pyrimidine-2,4(1H,3H)-dione] | 0.085
O=c1[nH]c(C2CC=C(c3ccc(S(=O)(=O)N4CCCC4)cc3F)CC2)c(Cc2ccccc2)c(=O)[nH]1 (centres unmarked) [Example 100] | 1.6

Compound | Ki [µM]
Cc1ccc(C2=CCC(c3[nH]c(=O)[nH]c(=O)c3Cc3ccccc3)CC2)c(N2CCCC2)n1 (centres unmarked) [Example 50] | 0.014
O=c1[nH]c(C2CC=C(c3cc(CO)ccc3Cl)CC2)c(Cc2ccccc2)c(=O)[nH]1 (centres unmarked) [Example 28] | 0.15
CCOc1ccc(C2=CCC(c3[nH]c(=O)[nH]c(=O)c3Cc3ccccc3)CC2)c(C(F)(F)F)c1 (centres unmarked) [Example 53] | 0.051
O=c1[nH]c(C2CC=C(c3c(Cl)cccc3Cl)CC2)c(Cc2ccccc2)c(=O)[nH]1 (centres unmarked) [Example 19] | 0.032
COc1ccc(C#N)cc1C1=CCC(c2[nH]c(=O)[nH]c(=O)c2Cc2ccccc2)CC1 (centres unmarked) [Example 23] | 0.33
O=c1[nH]c(C2CC=C(c3ccccc3Cl)CC2)c(Cc2ccccc2)c(=O)[nH]1 (centres unmarked) [Example 8] | 0.052
Cc1ccncc1C1=CCC(c2[nH]c(=O)[nH]c(=O)c2Cc2ccccc2)CC1 (centres unmarked) [Example 30] | 0.05
O=c1[nH]c(C2CC=C(c3ccccc3OC(F)(F)F)CC2)c(Cc2ccccc2)c(=O)[nH]1 (centres unmarked) [Example 26] | 0.05
O=c1[nH]c(C2CC=C(c3cccnc3N3CCC(F)(F)CC3)CC2)c(Cc2ccccc2)c(=O)[nH]1 (centres unmarked) [Example 45] | 0.97
O=c1[nH]c([C@@H]2CC=C(c3ccc(Cl)cc3C(F)(F)F)CC2)c(Cc2ccccc2)c(=O)[nH]1 (single isomer, unassigned) [Example 110] | 0.038
CS(=O)(=O)c1ccccc1C1=CCC(c2[nH]c(=O)[nH]c(=O)c2Cc2ccccc2)CC1 (centres unmarked) [Example 15] | 0.52
O=c1[nH]c(C2CC=C(c3cncs3)CC2)c(Cc2ccccc2)c(=O)[nH]1 (centres unmarked) [Example 4] | 1.3
CCn1nc(C(F)(F)F)cc1C1=CCC(c2[nH]c(=O)[nH]c(=O)c2Cc2ccccc2)CC1 (centres unmarked) [Example 71] | 0.148
C[C@H]1CCCN(c2ncccc2C2=CCC(c3[nH]c(=O)[nH]c(=O)c3Cc3ccccc3)CC2)C1 (some centres unmarked) [Example 48] | 0.13
N#Cc1ccc(C2=CC[C@H](c3[nH]c(=O)[nH]c(=O)c3Cc3ccccc3)CC2)c(Cl)c1 (single isomer, unassigned) [Example 39] | 0.069
O=c1[nH]c(C2CC=C(c3ccc(Cl)cc3Cl)CC2)c(Cc2ccccc2)c(=O)[nH]1 (centres unmarked) [Example 6] | 0.065
CC1(C)CCCN(c2ncccc2C2=CCC(c3[nH]c(=O)[nH]c(=O)c3Cc3ccccc3)CC2)C1 (centres unmarked) [Example 46] | 0.3
COc1ccc(C2=CCC(c3[nH]c(=O)[nH]c(=O)c3Cc3ccccc3)CC2)c(Cl)c1 (centres unmarked) [Example 29] | 0.012
CCn1nccc1C1=CCC(c2[nH]c(=O)[nH]c(=O)c2Cc2ccccc2)CC1 (centres unmarked) [Example 54] | 1.36
O=c1[nH]c(C2CC=C(c3cccc(Cl)c3Cl)CC2)c(Cc2ccccc2)c(=O)[nH]1 (centres unmarked) [Example 2] | 0.099
CC(C)Oc1ccc(C2=CCC(c3[nH]c(=O)[nH]c(=O)c3Cc3ccccc3)CC2)c(F)c1 (centres unmarked) [Example 68] | 0.497
CC(C)Cn1nccc1C1=CCC(c2[nH]c(=O)[nH]c(=O)c2Cc2ccccc2)CC1 (centres unmarked) [Example 62] | 0.884
Cc1ccc(F)cc1C1=CCC(c2[nH]c(=O)[nH]c(=O)c2Cc2ccccc2)CC1 (centres unmarked) [Example 21] | 0.27
O=c1[nH]c(C2CC=C(c3ccc(Cl)cc3C(F)(F)F)CC2)c(Cc2cccc(C(F)(F)F)c2)c(=O)[nH]1 (centres unmarked) [Example 114, 6-(4′-chloro-2′-(trifluoromethyl)-2,3,4,5-tetrahydro-[1,1′-biphenyl]-4-yl)-5-(3-(trifluoromethyl)benzyl)pyrimidine-2,4(1H,3H)-dione] | 0.121
CCOc1ccc(C2=CCC(c3[nH]c(=O)[nH]c(=O)c3Cc3ccccc3)CC2)c(F)c1Cl (centres unmarked) [Example 79] | 0.53

— patent US12018001B2, “Pyrimidine cyclohexenyl glucocorticoid receptor modulators” (priority 2018, dated 2024)
